The results in this text go back to PubChem BioAssay AID274 (DTP/NCI, 2004).

“And” between values parts separate entries of the source, which are not always exact repeats. Identical values can stand only once. Inconclusive results and toxic doses are left out.

In the test the test system is BDF1 mice, Lewis lung carcinoma iv, survival T/C. Kind of test: NCI In Vivo Anticancer Drug Screen. Data for tumor model Lewis Lung Carcinoma (intravenous) in B6D2F1 (BDF1) mice. The settings on record: endpoint: median survival time, higher = longer survival. The procedure: The antitumor activity of compounds was measured in mice bearing transplantable tumors. Survival or tumor size were measured and the results are expressed as the measurement made in the treated group (T) divided by the measurement made in the vehicle treated control group (C). The tumor model used in this assay is Lewis Lung Carcinoma (intravenous) in B6D2F1 (BDF1) mice

[1] abbreviates: dose: 12.5 mg/kg/injection, schedule: Q01DX009 (ip), vehicle: saline with Tween-80.
Where [2] appears, read: dose: 25.0 mg/kg/injection, schedule: Q01DX009 (ip), vehicle: saline with Tween-80.
The mark [3] stands for this setting: dose: 50.0 mg/kg/injection, schedule: Q01DX009 (ip), vehicle: saline with Tween-80.
Where [4] appears, read: dose: 100.0 mg/kg/injection, schedule: Q01DX009 (ip), vehicle: saline with Tween-80.
Where [5] appears, read: dose: 200.0 mg/kg/injection, schedule: Q01DX009 (ip), vehicle: saline with Tween-80.
[6] abbreviates: dose: 400.0 mg/kg/injection, schedule: Q01DX009 (ip), vehicle: saline with Tween-80.
Where [7] appears, read: dose: 12.5 mg/kg/injection, schedule: Q01DX009 (ip), vehicle: saline.
[8] abbreviates: dose: 25.0 mg/kg/injection, schedule: Q01DX009 (ip), vehicle: saline.
[9] abbreviates: dose: 50.0 mg/kg/injection, schedule: Q01DX009 (ip), vehicle: saline.
[10] abbreviates: dose: 6.25 mg/kg/injection, schedule: Q01DX009 (ip), vehicle: saline.
The mark [11] stands for this setting: dose: 3.12 mg/kg/injection, schedule: Q01DX009 (ip), vehicle: saline with Tween-80.
Setting [12] is: dose: 6.25 mg/kg/injection, schedule: Q01DX009 (ip), vehicle: saline with Tween-80.
Where [13] appears, read: dose: 100.0 mg/kg/injection, schedule: Q01DX009 (ip), vehicle: saline.

For the molecule `CC(Oc1ccccc1-c1ccccc1)C(=O)N(C)C` (stereo unspecified), the T/C was 118 % of control under setting [1]; 95 % of control under setting [2]; 113 % of control under setting [3]; 93 % of control under setting [4]; 113 % of control under setting [5]; 114 % of control under setting [6].
Take `CC(=O)OCC1OC(n2ccc(N)nc2=O)C(OC(C)=O)C1OC(C)=O` (stereo unspecified): the T/C runs as follows: under setting [7], 122 % of control; under setting [8], 98 % of control; under setting [9], 109 % of control.
With `COc1ccc2c(c1)/C(=C/CCN(C)C)c1ccccc1S2`, the T/C under setting [10] is 114 % of control; the T/C under setting [7] is 98 % of control and 105 % of control; the T/C under setting [8] is 106 % of control and 110 % of control.
In the case of `O=C(O)CC(NC(=O)CP(=O)(O)O)C(=O)O` (stereo unspecified), the T/C by setting is: (dose: 490.0 mg/kg/injection, schedule: Q04DX003 (ip), vehicle: saline) 165 % of control; (dose: 700.0 mg/kg/injection, schedule: Q04DX003 (ip), vehicle: saline) 100 % of control.
Turning to `NC(Cc1cc([N+](=O)[O-])ccc1CN(CCCl)CCCl)C(=O)O` (stereo unspecified), the T/C runs as follows: (dose: 3.24 mg/kg/injection, schedule: Q04DX003 (ip), vehicle: Klucel (hydroxypropylcellulose) (HPC)) 102 % of control; (dose: 5.4 mg/kg/injection, schedule: Q04DX003 (ip), vehicle: Klucel (hydroxypropylcellulose) (HPC)) 115 % of control; (dose: 15.0 mg/kg/injection, schedule: Q04DX003 (ip), vehicle: Klucel (hydroxypropylcellulose) (HPC)) 102 % of control.
Take `O=C(CCl)N1c2ccccc2Oc2cc3ccccc3cc21`: the T/C is 107 % of control under setting [4], 116 % of control under setting [5] and 111 % of control under setting [6].
On to `CS(=O)(=O)[O-].CS(=O)(=O)[O-].NC1CCCCC1N.[Pt+4]` (stereo unspecified), for which the T/C runs as follows: (dose: 0.31 mg/kg/injection, schedule: Q01DX009 (ip), vehicle: dextrose) 113 % of control; (dose: 0.62 mg/kg/injection, schedule: Q01DX009 (ip), vehicle: dextrose) 98 % of control; (dose: 1.25 mg/kg/injection, schedule: Q01DX009 (ip), vehicle: dextrose) 91 % of control.
In the case of `CC1(C)CC23C4COC(=O)C2CCC1C3CC4=O` (stereo unspecified), the T/C was 109 % of control (dose: 1.5 mg/kg/injection, schedule: Q01DX009 (ip), vehicle: DMSO); 161 % of control (dose: 6.0 mg/kg/injection, schedule: Q01DX009 (ip), vehicle: DMSO); 285 % of control (dose: 12.0 mg/kg/injection, schedule: Q01DX009 (ip), vehicle: DMSO); 185 % of control (dose: 24.0 mg/kg/injection, schedule: Q01DX009 (ip), vehicle: DMSO); 180 % of control (dose: 48.0 mg/kg/injection, schedule: Q01DX009 (ip), vehicle: DMSO).
With `CCc1nc(N)nc(N)c1-c1ccc(Cl)c(Cl)c1.[Cl][Pd][Cl]`, the T/C under setting [7] was 114 % of control.
For the molecule `c1ccc2c(c1)nnn1c3cnccc3nc21`, the T/C (dose: 1.56 mg/kg/injection, schedule: Q01DX009 (ip), vehicle: saline with Tween-80) was 103 % of control; the T/C under setting [11] is 90 % of control; the T/C under setting [12] was 103 % of control; the T/C under setting [1] is 109 % of control.
For the molecule `O=C1c2ccccc2C(=O)c2c(NCCNCCO)ccc(NCCNCCO)c21`, the T/C (dose: 1.0 mg/kg/injection, schedule: Q01DX005 (ip), vehicle: saline with Tween-80) was 119 % of control; the T/C (dose: 1.0 mg/kg/injection, schedule: Q01DX009 (ip), vehicle: saline with Tween-80) is 100 % of control; the T/C (dose: 2.0 mg/kg/injection, schedule: Q01DX005 (ip), vehicle: saline) was 102 % of control; the T/C (dose: 2.0 mg/kg/injection, schedule: Q01DX009 (ip), vehicle: saline with Tween-80) was 110 % of control; the T/C (dose: 4.0 mg/kg/injection, schedule: Q01DX005 (ip), vehicle: saline with Tween-80) was 109 % of control; the T/C (dose: 4.0 mg/kg/injection, schedule: Q01DX009 (ip), vehicle: saline with Tween-80) is 102 % of control.
As for `CC(CNC(=O)CCOS(C)(=O)=O)NC(=O)CCOS(C)(=O)=O` (stereo unspecified), under setting [13], the T/C is 106 % of control.
As to `CN(C)c1ccc2c(N(C)C)cc(N(C)C)nc2c1`, the T/C by setting is: (dose: 1.56 mg/kg/injection, schedule: Q01DX009 (ip), vehicle: Klucel (hydroxypropylcellulose) (HPC)) 98 % of control; (dose: 3.13 mg/kg/injection, schedule: Q01DX009 (ip), vehicle: Klucel (hydroxypropylcellulose) (HPC)) 95 % of control; (dose: 6.25 mg/kg/injection, schedule: Q01DX009 (ip), vehicle: Klucel (hydroxypropylcellulose) (HPC)) 102 % of control; (dose: 12.5 mg/kg/injection, schedule: Q01DX009 (ip), vehicle: Klucel (hydroxypropylcellulose) (HPC)) 99 % of control; (dose: 25.0 mg/kg/injection, schedule: Q01DX009 (ip), vehicle: Klucel (hydroxypropylcellulose) (HPC)) 111 % of control.
For `COc1c2occc2cc2ccc(=O)oc12`, the T/C (dose: 8.0 mg/kg/injection, schedule: Q01DX009 (ip), vehicle: saline with Tween-80) is 109 % of control; the T/C (dose: 16.0 mg/kg/injection, schedule: Q01DX009 (ip), vehicle: saline with Tween-80) is 109 % of control; the T/C (dose: 32.0 mg/kg/injection, schedule: Q01DX009 (ip), vehicle: saline with Tween-80) was 96 % of control; the T/C (dose: 64.0 mg/kg/injection, schedule: Q01DX009 (ip), vehicle: saline with Tween-80) was 113 % of control; the T/C (dose: 128.0 mg/kg/injection, schedule: Q01DX009 (ip), vehicle: saline with Tween-80) is 110 % of control.
`Cc1cn(C2CC(O)C(CO)O2)c(=O)[nH]c1=O` (stereo unspecified): the T/C was 89 % of control under setting [1], 88 % of control under setting [3], 94 % of control under setting [4] and 98 % of control under setting [5].
Regarding `C=C(C)[C@@H]1CCc2c(O)c(O)c(=O)cc(C)c2C1`, the T/C reads like this: (dose: 3.12 mg/kg/injection, schedule: Q01DX009 (ip), vehicle: saline) 111 % of control; under setting [10], 106 % of control; under setting [7], 96 % of control; under setting [8], 101 % of control; under setting [9], 102 % of control; under setting [13], 101 % of control.
With `c1ccc2c3c(ccc2c1)Sc1ccc2ccccc2c1N3`, the T/C runs as follows: under setting [4], 111 % of control; under setting [6], 102 % of control.
Take `O=c1cc(CCl)[nH]nc1CCl`: the T/C by setting is: under setting [11], 98 % of control; under setting [12], 96 % of control; under setting [1], 96 % of control.
For `NC(=O)c1csc(C2OC(CO)C(O)C2O)n1` (stereo unspecified), the T/C is 326 % of control (dose: 25.0 mg/kg/injection, schedule: Q01DX009 (ip), vehicle: water); 326 % of control (dose: 50.0 mg/kg/injection, schedule: Q01DX009 (ip), vehicle: water); 326 % of control (dose: 100.0 mg/kg/injection, schedule: Q01DX009 (ip), vehicle: water); 326 % of control (dose: 200.0 mg/kg/injection, schedule: Q01DX009 (ip), vehicle: water); 452 % of control (dose: 330.0 mg/kg/injection, schedule: Q01DX009 (ip), vehicle: water); 326 % of control (dose: 400.0 mg/kg/injection, schedule: Q01DX009 (ip), vehicle: water). Besides, the T/C runs as follows: (dose: 500.0 mg/kg/injection, schedule: Q01DX009 (ip), vehicle: water) 452 % of control; (dose: 750.0 mg/kg/injection, schedule: Q01DX009 (ip), vehicle: water) 452 % of control.
For `CCCCCCCCCCCCOP(N)(=O)OCCCCCCCCCCCC`, the T/C under setting [2] is 97 % of control, the T/C under setting [3] was 93 % of control and the T/C under setting [4] was 91 % of control.
On to `Cc1cc2cc3cc(C)c(N)cc3nc2cc1N`, for which the T/C is 102 % of control under setting [11], 104 % of control under setting [12], 100 % of control under setting [1] and 105 % of control under setting [2].
Consider `CCC1OCCN1C(C)C` (stereo unspecified), for which the T/C under setting [8] is 95 % of control and the T/C under setting [9] is 124 % of control.
For the molecule `CNc1nc(N(C)C)nc(N(C)C)n1`, the T/C under setting [7] is 96 % of control and the T/C under setting [8] is 98 % of control.
In the case of `CC(=O)Nc1ccc(Nc2ccc(C(=C3C=CC(=[N+](C)CCC#N)C=C3)c3ccc(N(C)CCC#N)cc3)cc2)cc1`, the T/C runs as follows: under setting [1], 101 % of control; under setting [2], 110 % of control.
Regarding `CCCC(=O)Oc1ccc(/C=N/NC(N)=S)nc1`, the T/C is 104 % of control and 109 % of control under setting [1]; 109 % of control under setting [2]; 96 % of control and 109 % of control under setting [3]; 97 % of control and 104 % of control under setting [4]; 120 % of control under setting [5].
